These results are taken from US5658938A, “Substituted 1H-imidazoles” (U C B S.A., priority 1994, dated 1997).

Series [1] concerns coronary occlusion in the rat. Put plainly: Anti-ischemic and anti-hypertensive activity: coronary occlusion in the anesthetized rat (elevation of the T wave of the electrocardiogram, arterial pressure). The series is classed as in vivo, male albino rat of the Sprague-Dawley strain. The note with it: for change in vivo at 3 µmol/kg / change in vivo at 1 µmol/kg: Rattus norvegicus, iv. The source says: The cardiac anti-ischemic activity of compounds manifests itself by their capacity to oppose the elevation of the T wave of the electrocardiogram, induced by a coronary occlusion in the rat. Continuous monitoring of the arterial pressure also enables to reveal the anti-hypertensive effects. The animal used for the test is a male albino rat of the Sprague-Dawley strain, weighing 220 to 280 g. On the day of the experiment, the animal is anesthetized by intraperitoneal administration of pentobarbital (60 mg/kg), then placed under endotracheal intubation. A ligature system is fitted around the descending left anterior coronary artery according to the procedure of Johnston et el. (Can. J. Physiol. Pharmacol., 61 (1983), 1340-1353). After closing the thorax, three electrodes are arranged on the body of the animal ("V4" thoracic derivation), in order to continuously record the shape of the electrocardiogram signal (in particular the T wave). Catheters are introduced into the right carotid artery and the right jugular vein to measure the arterial pressure and to administer intravenously the compound tested or the vehicle solution. Four 45 second coronary occlusions are performed, separated by episodes of reperfusion of 30, 35 and 30 minutes respectively. The compound to be studied or the vehicle are administered intravenously in bolus, 30 minutes before occlusion 3. The T electrocardiographic signal and the arterial pressure are continuously measured during the entire experiment.
The effects of the compounds according to the invention are quantified by comparing the amplitude of the elevation of the T wave at occlusions 3 and 4 (that is 30 minutes and 60 minutes after administration) with its value at occlusion 2 (that is before administration).
the second column indicates the dose of compound administered, expressed in mole/kg;
the third and the fourth columns indicate the anti-ischemic effect caused by administering the compound tested. The anti-ischemic effect represents the reduction in the elevation of the T wave caused by coronary occlusions 3 and 4, expressed in % with respect to occlusion 2, before administration of the compound (ΔT3 and ΔT4 respectively);
the fifth and sixth columns indicate the anti-hypertensive effect caused by administration of the compound tested. The anti-hypertensive effect is expressed as the maximum lowering of arterial pressure, measured a) between 5 and 30 minutes, and b) between 30 and 60 minutes after intravenous injection of the compound tested (ΔPa and ΔPb respectively). This lowering is expressed in % with respect to the value measured before injection.

Series [2] deals with T1, postsynaptic α1 -adrenergic receptor (Rattus norvegicus, UniProt P23944).
T1 construct: isolated aorta of the rat; from tissue; host or cells: rat isolated aorta
T1 sequence (P23944 1-561): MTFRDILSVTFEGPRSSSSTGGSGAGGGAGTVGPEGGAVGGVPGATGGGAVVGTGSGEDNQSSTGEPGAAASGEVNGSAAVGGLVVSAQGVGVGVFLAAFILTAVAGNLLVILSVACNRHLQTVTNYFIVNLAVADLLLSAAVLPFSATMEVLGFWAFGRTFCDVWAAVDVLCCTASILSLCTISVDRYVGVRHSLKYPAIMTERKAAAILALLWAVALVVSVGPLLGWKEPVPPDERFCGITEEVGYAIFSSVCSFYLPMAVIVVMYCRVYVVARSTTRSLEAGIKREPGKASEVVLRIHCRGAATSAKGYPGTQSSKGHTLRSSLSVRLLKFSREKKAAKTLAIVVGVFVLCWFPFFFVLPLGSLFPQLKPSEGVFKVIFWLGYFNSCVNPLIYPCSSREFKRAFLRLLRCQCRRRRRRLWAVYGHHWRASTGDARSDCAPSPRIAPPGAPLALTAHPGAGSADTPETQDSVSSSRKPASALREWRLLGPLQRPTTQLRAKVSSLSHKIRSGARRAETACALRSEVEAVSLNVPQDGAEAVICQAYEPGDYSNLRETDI
Nature of the series: Postsynaptic α1-antagonist activity: inhibition of norepinephrine-induced contraction of the isolated aorta of the rat. The settings on record: read-out: ED30 (concentration which causes 30% inhibition of the contraction induced by norepinephrine). The procedure:
A non selective α-agonist substance such as norepinephrine induces a sustained contraction of the isolated aorta of the rat (J. M. Van Rossum Arch. Int. Pharmacodyn. 143, (1963), 299-330). This contraction can be inhibited by α1 -adrenergic blocking substances such as prazosin. In this test, a control contraction is carried out with norepinephrine at 3.2×10^-8 mole/l. After washing and stabilizing the preparation, the compound to be tested is added to the bath. Norepinephrine is added 5 minutes after the compound tested, and inhibition of the contraction induced by norepinephrine is measured. Next, inhibition of the contraction induced by norepinephrine is evaluated a second and third time in the presence of increasing concentrations of the compound tested.

In series [3] the test system is male NMRI mice. Nature of the series: Toxicity, Irwin's test. The settings on record: intraperitoneal. The class given is in vivo. The procedure: The toxicity of the compounds of the invention has been determined in male NMRI mice by means of Irwin's test (S. Irwin, Psychopharmacologia (Berl.), 13, (1968), 222-257).
Progressive doses of the product studied are administered intraperitoneally to groups of three mice until a lethal dose is reached (dose causing the death of two out of three animals in 48 hours). It follows from this Table that the compounds of the invention are not very toxic.

Series [4] has as its system presynaptic α2 -adrenergic receptors. Nature of the series: Inhibition of the contraction of the electrically stimulated guinea pig ileum (presynaptic α2-agonist activity). The settings on record: guinea pig ileum longitudinal muscle strips, electrical stimulation. From the text:
Longitudinal muscle strips attached to an isometric strain gauge are suspended in Tyrode's solution and are stretched under a tension of 1 g (G. M. Drew, Brit. J. Pharmacol. 64, (1978), 293-300; M. Andrejak et al., Naunyn-Schmiedeberg's Arch. Pharmacol. 314, (1980), 83-87).
Electrical stimulation of the parasympathetic nerves associated with the ileum fragments causes a contraction of the muscle. This contraction is reduced in the presence of a presynaptic α2 -agonist and the magnitude by which the contraction is reduced depends on the concentration of the agonist used. This effect is antagonised by the simultaneous presence of an α2 -antagonist such as alpha-yohimbine.
The IC30 concentration (in mole/l) that reduces by 30% the intensity of the contraction of the muscle is determined.

Where [5] appears, read: 0.5 h, read-out: ΔPa (maximum lowering of arterial pressure).
The mark [6] stands for this setting: 0.5 h, read-out: ΔT3 (anti-ischemic effect: change in elevation of the T wave, occlusion 3 vs occlusion 2).
The mark [7] stands for this setting: 1 h, read-out: ΔPb (maximum lowering of arterial pressure).
[8] abbreviates: 1 h, read-out: ΔT4 (anti-ischemic effect: change in elevation of the T wave, occlusion 4 vs occlusion 2).

Structures can show the parent of a compound that is named as a salt. Where two headings read alike, the source gives them in different places.

As for `COc1ccc2c(c1)CCCC2c1c[nH]cn1` (single isomer, unassigned; (+)) [Compound A, (+)-4-(1,2,3,4-tetrahydro-6-methoxy-1-naphthalenyl)-1H-imidazole], the change in vivo at 3 µmol/kg in series [1] (setting [5]) is -32%; in series [1] (setting [6]) it was -80%; in series [1] (setting [7]) it was -28%; in series [1] (setting [8]), -33%. Besides, the IC30 in series [2] is 21 nM. Also, the “Lethal dose (dose causing the death of two out of three animals in 48 hours)” value (shortened to “Lethal dose”) in series [3] is reported as 228.3 mg/kg. For the same compound, in series [4], the “IC30 (concentration that reduces by 30% the intensity of the contraction of the muscle)” value came out at 30 nM.
Turning to `Oc1ccc2c(c1)CCCC2c1c[nH]cn1` (single isomer, unassigned; (+)) [Compound D, (+)-5,6,7,8-tetrahydro-5-(1H-imidazol-4-yl)-2-naphthalenol], the change in vivo at 1 µmol/kg is -30% in series [1] (setting [5]), -50% in series [1] (setting [6]), -17% in series [1] (setting [7]) and -31% in series [1] (setting [8]). In addition, the IC30 in series [2] was determined as 420 nM. In addition, the “Lethal dose” value in series [3] is recorded as above 68.6 mg/kg. Further, the “IC30 (concentration that reduces by 30% the intensity of the contraction of the muscle)” value in series [4] turned out to be 1.8 nM.
For `Cc1cccc2c1CCCC2c1c[nH]cn1` (stereo not shown) [Compound B, 4-(1,2,3,4-tetrahydro-5-methyl-1-naphthalenyl)-1H-imidazole], the change in vivo at 3 µmol/kg in series [1] (setting [5]) is -33%; in series [1] (setting [6]) it was -48%; in series [1] (setting [7]), -16%; in series [1] (setting [8]), -29%. Moreover, the IC30 in series [2] was 33 nM. Also, in series [3], the “Lethal dose” value is above 67.9 mg/kg. The “IC30 (concentration that reduces by 30% the intensity of the contraction of the muscle)” value in series [4] came to 0.88 nM.
Regarding `COc1ccc2c(c1)CCC2c1c[nH]cn1` (stereo not shown) [Compound C, 4-(2,3-dihydro-5-methoxy-1H-inden-1-yl)-1H-imidazole], the change in vivo at 3 µmol/kg in series [1] (setting [5]) is -44%; in series [1] (setting [6]) it was -52%; in series [1] (setting [7]), -43%; in series [1] (setting [8]), -66%. The IC30 in series [2] came to 100 nM. The “Lethal dose” value in series [3] came out at 214.3 mg/kg. Besides, in series [4], the “IC30 (concentration that reduces by 30% the intensity of the contraction of the muscle)” value is 32 nM.
Take `COc1cccc2c1CCCC2c1c[nH]cn1` (stereo not shown) [Compound E, 4-(1,2,3,4-tetrahydro-5-methoxy-1-naphthalenyl)-1H-imidazole]: the change in vivo at 1 µmol/kg was -45% in series [1] (setting [5]), -31% in series [1] (setting [6]), -20% in series [1] (setting [7]) and -13% in series [1] (setting [8]). In addition, the IC30 in series [2] is 460 nM. The “Lethal dose” value in series [3] is recorded as 127.8 mg/kg. For the same compound, in series [4], the “IC30 (concentration that reduces by 30% the intensity of the contraction of the muscle)” value was 1.7 nM.
Take `Cl.Oc1cc2c(cc1O)C(c1c[nH]cn1)CCC2` (stereo not shown) [Compound K, 5,6,7,8-tetrahydro-5-(1H-imidazol-4-yl)-2,3-naphthalenediol hydrochloride]: the change in vivo at 3 µmol/kg was -29% in series [1] (setting [5]), -49% in series [1] (setting [6]), -41% in series [1] (setting [7]) and -47% in series [1] (setting [8]). For the same compound, in series [3], the “Lethal dose” value is recorded as above 85.4 mg/kg. Also, the “IC30 (concentration that reduces by 30% the intensity of the contraction of the muscle)” value in series [4] was determined as 16 nM.
In the case of `NC(=O)c1cccc(Cc2c[nH]cn2)c1O` [Mivazerol, 2-hydroxy-3-[(1H-imidazol-4-yl)methyl]benzamide hydrochloride, reference compound], the change in vivo at 3 µmol/kg in series [1] (setting [5]) was -1%; in series [1] (setting [6]), -34%; in series [1] (setting [7]), -6%; in series [1] (setting [8]), -22%.
Regarding `Cc1cc(C(C)(C)C)c(O)c(C)c1CC1=NCCN1` [Oxymetazoline, 3-[(4,5-dihydro-1H-imidazol-2-yl)methyl]-6-(1,1-dimethylethyl)-2,4-dimethylphenol, reference compound], the change in vivo at 3 µmol/kg in series [1] (0.5 h, i.v. bolus, 3.2 × 10^-8 mole/kg, 30 minutes after administration, read-out: ΔT3 (anti-ischemic effect: change in elevation of the T wave, occlusion 3 vs occlusion 2)) was -45%; in series [1] (1 h, i.v. bolus, 3.2 × 10^-8 mole/kg, 60 minutes after administration, read-out: ΔT4 (anti-ischemic effect: change in elevation of the T wave, occlusion 4 vs occlusion 2)), -38%; in series [1] (1 h, i.v. bolus, 3.2 × 10^-8 mole/kg, between 30 and 60 minutes after injection, read-out: ΔPb (maximum lowering of arterial pressure)) it was 0%. Also, the “IC30 (concentration that reduces by 30% the intensity of the contraction of the muscle)” value in series [4] was determined as 12 nM.
For the compound `COc1cc2nc(N3CCN(C(=O)c4ccco4)CC3)nc(N)c2cc1OC` [Prazosin, 1-(4-amino-6,7-dimethoxy-2-quinazolinyl)-4-(2-furanylcarbonyl)piperazine, reference compound], in series [1] (i.v., Table I), the “anti-ischemic effect, in words” value is reported as “absence of a significant anti-ischemic effect”. Moreover, the IC30 in series [2] was 0.23 nM.
Take `CC(C)NCC(O)COc1cccc2ccccc12` (stereo not shown) [Propranolol, 1-[(1-methylethyl)amino]-3-(1-naphthalenyloxy)-2-propanol, reference compound]: the change in vivo at 3 µmol/kg in series [1] (0.5 h, i.v. bolus, 3.2 × 10^-6 mole/kg, 30 minutes after administration, read-out: ΔT3 (anti-ischemic effect: change in elevation of the T wave, occlusion 3 vs occlusion 2)) was -21%; in series [1] (0.5 h, i.v. bolus, 3.2 × 10^-6 mole/kg, between 5 and 30 minutes after injection, read-out: ΔPa (maximum lowering of arterial pressure)), 7%; in series [1] (1 h, i.v. bolus, 3.2 × 10^-6 mole/kg, 60 minutes after administration, read-out: ΔT4 (anti-ischemic effect: change in elevation of the T wave, occlusion 4 vs occlusion 2)), -30%; in series [1] (1 h, i.v. bolus, 3.2 × 10^-6 mole/kg, between 30 and 60 minutes after injection, read-out: ΔPb (maximum lowering of arterial pressure)) it was 5%.
